Experimental data as given in publication PMC4497601 (Angewandte Chemie (International Ed. in English), 2014).
“Also recorded” adds a separate entry of the source.

Legend:
Hsp90 ATP binding site = Hsp90 ATP binding site (Homo sapiens, UniProt P07900); assay: LLS screening in competition mode; conditions: Δ=2.5 s; for binding to Hsp90 in LLS competition screening of mixtures: 500 μM spy ligand II, 2.5 μM Hsp90, 600 μM of each ligand
[1] = biological target: N-terminal ATPase domain of heat shock protein 90 (Hsp90) (Homo sapiens, UniProt P07900); assay: LLS NMR direct titration of ligand against Hsp90; assay type: binding
Hsp90 [2] = conditions: read-out: KD ITC; cited from earlier work
Hsp90 [3] = conditions: cited from earlier work

In the case of `NCc1ccc(F)c(F)c1` [3,4-difluorobenzylamine], the “binding to Hsp90 in LLS competition screening of mixtures” value (from here on “binding to Hsp90 … of mixtures”) (Hsp90 ATP binding site) is reported as “nonbinding”.

In the case of `N=C(N)c1ccc(C(F)(F)F)cc1` [4-trifluoromethylbenzamidine], the “binding to Hsp90 … of mixtures” value (Hsp90 ATP binding site) is reported as “nonbinding”.

In the case of `CC(C)c1cc(C(=O)N2Cc3ccc(CN4CCN(C)CC4)cc3C2)c(O)cc1O` [AT13387], the “LLS signal of spy ligand II on addition of competitor” value (Hsp90 ATP binding site; 500 μM ligand II, 10 μM Hsp90, 10 μM competitor) is reported as “almost completely restored; also recorded: partly restored”.

`Nc1ncnc2c1ncn2[C@@H]1O[C@H](COP(=O)(O)OP(=O)(O)O)[C@@H](O)[C@H]1O` [Ligand I, Adenosine diphosphate] showed a Kd [1] of 15 ± 10 µM, an RLLS bound ([1]; bound ligand, fitted from direct titration with 10 μM Hsp90) of 77 ± 6 s⁻¹ and an RLLS free ([1]; free ligand) of 731±7 ms^−1. The Kd (Hsp90 [2]) was 10 µM.

For `Nc1ncccn1` [Ligand III, 2-aminopyrimidine], the Kd (Hsp90 [2]) is listed as greater than 1000 µM.

For `Cc1cnc(N)c(Br)c1` [Ligand V, 3-bromo-5-methylpyridin-2-ylamine], the “binding to Hsp90 … of mixtures” value (Hsp90 ATP binding site) is given as “weakly binding” and the “binding to Hsp90 identified by fragment screening” value (Hsp90 [3]) is given as “weak ADP-competitive binders”.

With `N[C@@H](Cc1ccc(O)cc1)C(=O)O` [tyrosine] the “binding to Hsp90 … of mixtures” value (Hsp90 ATP binding site) was “nonbinding”.
